Source: ChEMBL document CHEMBL1201862, “PubChem BioAssay data set” (2004)
Calls of active or inactive are those of the source.

Assays:
[1] = molecular target: T1, High affinity choline transporter 1 (Homo sapiens, UniProt Q9GZV3); assay: inhibition of SLC5A7-mediated choline transport – cell-based, HEK-293 hCHT, [3H]-choline uptake, dose response (AID 652177); format: functional
T1 sequence (Q9GZV3 whole entry): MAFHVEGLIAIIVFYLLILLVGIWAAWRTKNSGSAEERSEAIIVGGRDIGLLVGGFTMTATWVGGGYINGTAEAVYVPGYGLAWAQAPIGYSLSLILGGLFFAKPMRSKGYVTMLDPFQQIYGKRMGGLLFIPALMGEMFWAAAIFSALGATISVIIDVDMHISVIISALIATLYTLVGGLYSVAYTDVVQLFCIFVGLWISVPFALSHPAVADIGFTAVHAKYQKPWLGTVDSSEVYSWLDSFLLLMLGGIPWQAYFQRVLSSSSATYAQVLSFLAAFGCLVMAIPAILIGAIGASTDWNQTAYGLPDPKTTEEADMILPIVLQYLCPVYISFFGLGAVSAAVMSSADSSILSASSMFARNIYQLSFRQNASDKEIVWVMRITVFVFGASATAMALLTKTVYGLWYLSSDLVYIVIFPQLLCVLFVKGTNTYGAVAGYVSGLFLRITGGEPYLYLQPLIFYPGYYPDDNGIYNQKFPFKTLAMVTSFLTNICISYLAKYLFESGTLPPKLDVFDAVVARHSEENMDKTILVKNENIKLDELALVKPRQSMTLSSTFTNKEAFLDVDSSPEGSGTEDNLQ

[2] = A Cell-Based Confirmatory Screen for Compounds that Inhibit VEEV, TC-83 (5).; format: functional
[3] = cytotoxicity in MITF-independent A375 cells – cell-based, CellTiter-Glo luminescence, dry powder, set 4, counter-screen for MITF inhibitor project, dose response (AID 624364); format: functional; details: A-375;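 also: A375 melanoma cells are MITF independent so this is a counter screen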
[4] = viability loss in MITF-independent A375 cells – cell-based, CellTiter-Glo luminescence, dry powder, set 2, counter-screen for MITF inhibitor project, dose response (AID 624489); format: functional; details: A-375;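 also: actives are compounds lowering A375 viability meaning general cytotoxicity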
[5] = Late stage assay provider results from the probe development effort to identify inhibitors of the Plasmodium falciparum M17 Leucine Aminopeptidase (M17LAP): radiolabel-based cell-based dose response assay to identify compounds that inhibit P. falciparum growth in RBCs Set 2.; format: functional
[6] = A Cell-Based Confirmatory Screen for Compounds that Inhibit VEEV, TC-83 (7).; format: functional
[7] = inhibitors of non-replicating M. tuberculosis, dose response, luciferase, dry powder (AID 651619); format: functional; details: Mycobacterium tuberculosis
[8] = HeLa cell viability loss – plate reader, dry powder, cytotoxicity control, dose response (AID 651946); format: functional, cell-based
[9] = inhibitors of non-replicating M. tuberculosis, dose response, luciferase, dry powder (AID 651620); format: functional; details: Mycobacterium tuberculosis
[10] = growth inhibition of replicating M. tuberculosis, dose response, counter-screen, dry powder, IC90 (AID 651617); format: functional; details: Mycobacterium tuberculosis
[11] = MITF Orthogonal Assay: SK-MEL-5 CTG Assay Measured in Cell-Based System Using Plate Reader - 2084-02_Inhibitor_Dose_DryPowder_Activity_Set7.; format: functional
[12] = MITF: Counter assay: A375 proliferation Measured in Cell-Based System Using Plate Reader - 2084-03_Inhibitor_Dose_DryPowder_Activity_Set8.; format: functional; details: A-375
[13] = inhibitors of TRPM1-promoter reporter in SK-MEL-5 – cell-based, luciferase, dry powder, set 8, MITF inhibitor project, dose response (AID 624430); format: functional
[14] = Late stage assay provider results from the probe development effort to identify inhibitors of the Plasmodium falciparum M18 Aspartyl Aminopeptidase (M18AAP): radiolabel-based cell-based dose response assay to identify compounds that inhibit P. falciparum growth in RBCs, Set 2..; format: functional
[15] = CTGF mRNA reduction in DLD1 cells – cell-based, DLD1 colon cancer, RT-qPCR, cherry-pick, dose response (AID 1053122); format: functional; details: Cancer cell lines

COc1ccc(C(=O)NCc2cc(C(C)C)no2)cc1OCCN1CCCCC1
IC50 [1]: 760 nM (active)

O=c1c2cc([N+](=O)[O-])ccc2nc(CN2CCCCC2)n1-c1ccccc1F
IC50 [2]: 4.7 µM (active)

CC(=O)NC1=C(c2ccc3c(c2)oc2ccccc23)C(=O)c2ccccc2C1=O
AC50 [3]: 26.9 µM (active)
AC50 [4]: 14.9 µM (active)

CCCOc1ccc(CC(=O)NO)cc1
IC50 [5]: 8.6 µM (active)

CN(c1ccc(OCc2ccccc2)cc1)c1nc(=O)c2cccnc2s1
IC50 [6]: 2.33 µM (active)

Cc1cccc(CSc2nnc(-c3ccc(Cl)cc3)o2)n1
IC90 [7]: 2 µM (active)
AC50 [8]: > 24 µM (inactive)
IC90 [9]: 2 µM (active)
IC90 [10]: 125 µM (active)

CCN1CCN(C2=C(Nc3ccc(Cl)c(Cl)c3)C(=O)c3ccccc3C2=O)CC1
AC50 [11]: 9.55 µM (active)
AC50 [12]: 21.1 µM (active)
AC50 [13]: 10.8 µM (active)

COc1ccc(CCCNc2c3ccccc3nc3ccccc23)cc1OC
IC50 [14]: 2.2 µM (active)

C[C@H]1CN([C@@H](C)CO)C(=O)c2cccc(NC(=O)c3nc4ccccc4s3)c2O[C@@H]1CN(C)C(=O)Nc1ccc2c(c1)OCO2
AC50 [15]: 1.82 µM (active)
